Reference: PMC2972219, “Ionotropic Glutamate Receptor AMPA 1 Is Associated with Ovulation Rate” (PLoS ONE, 2010)

Key:
[1] = biological target: GRIA1^Ser (brain membrane fraction of S/S cows); test: [3H]AMPA ligand binding assay, membrane fractions from brain of S/S cows; set-up: species or system bovine; conditions: saturation binding of [3H]AMPA 1-200 nM, n = 3
Experimental: (§1) Membrane fractions were extracted from bovine brain as described previously, and 25 µg of protein were resolved by SDS-PAGE and transferred to polyvinylidene difluoride membranes. The blots were incubated with rabbit polyclonal antibody to GRIA1 (1∶1000, AB1504, Millipore, Tokyo, Japan) or actin (1∶200, A2066, Sigma-Aldrich, St. Louis, MO).
(§2) Protein (500 µg/ml) was used for a ligand binding assay with [^3H] AMPA (392.2 GBq/mmol, 1–200 nM) as described previously. Non-specific binding obtained by incubating 1 mM L- glutamate in the binding assay was subtracted from total binding to yield specific [^3H] AMPA- binding.

[2] = biological target: GRIA1 (brain membrane fraction of S/N cows); test: [3H]AMPA ligand binding assay, membrane fractions from brain of S/N cows; set-up: species or system bovine; conditions: saturation binding of [3H]AMPA 1-200 nM, n = 3
Experimental: as §1, §2

[3] = biological target: GRIA1^Asn (brain membrane fraction of N/N cows); test: [3H]AMPA ligand binding assay, membrane fractions from brain of N/N cows; set-up: species or system bovine; conditions: saturation binding of [3H]AMPA 1-200 nM, n = 3
Experimental: as §1, §2

[4] = test system: LH release; set-up: method as in PMID 9331548; conditions: infusion into the third cerebral ventricle, ovariectomized estrogen-primed adult female rats; cited from earlier work
[5] = biological target: T1, GRIA1^Ser (Bos taurus, UniProt G0T3G6); test: Whole-cell current responses in Xenopus oocytes injected with GRIA1^Ser mRNA; format: cell-based, bovine; conditions: Xenopus oocytes expressing GRIA1^Ser alone, glutamate 1-300 µM, n = 10; read-out: EC50 of current response
T1 construct: expressed in transfected cells; host or cells: Xenopus oocytes (mRNA injection)
Experimental: (§3) Bovine GRIA1 mRNAs were synthesized using mMESSAGE mMACHINE® SP6 Kit (Applied Biosystems) and injected into Xenopus oocytes as described previously. Whole-cell current responses to 1, 3, 10, 30, 100, and 300 µM glutamate were recorded as described previously.

[6] = biological target: T2, GRIA1^Asn (Bos taurus, UniProt G0T3G6, S306N); test: Whole-cell current responses in Xenopus oocytes injected with GRIA1^Asn mRNA; format: cell-based, bovine; conditions: Xenopus oocytes expressing GRIA1^Asn alone, glutamate 1-300 µM, n = 9; read-out: EC50 of current response
T2 construct: expressed in transfected cells; host or cells: Xenopus oocytes (mRNA injection)
Experimental: as §3

[7] = test system: GRIA1^Ser with GRIA2; test: Whole-cell current responses in Xenopus oocytes coexpressing GRIA1^Ser with GRIA2; format: cell-based, bovine; conditions: Xenopus oocytes expressing GRIA1^Ser coexpressed with GRIA2, n = 8; read-out: EC50 of current response
Experimental: as §3

[8] = test system: GRIA1^Asn with GRIA2; test: Whole-cell current responses in Xenopus oocytes coexpressing GRIA1^Asn with GRIA2; format: cell-based, bovine; conditions: Xenopus oocytes expressing GRIA1^Asn coexpressed with GRIA2, n = 8; read-out: EC50 of current response
Experimental: as §3

[9] = test system: GT1-7 cells expressing GRIA1^Ser; test: GnRH release from GT1-7 cells expressing GRIA1 (enzyme immunoassay); format: cell-based, murine; conditions: 100 µM glutamate for 30 min, GT1-7 cells expressing GRIA1^Ser compared with GRIA1^Asn
Experimental: We amplified bovine GRIA1 that had been cloned into pTracer-nucGFP with primers GRIA1InFusionF and R and then switched into pCAGGS (N-R) using the In-Fusion™ Advantage PCR Cloning Kit (Takara Bio Inc., Shiga, Japan) to produce HA-tagged protein under the control of a ubiquitous strong promoter that was based on the β-actin promoter.
GT1-7 cells were cultured in six-well dishes coated with poly-L-ornithine (BD Biocoat [PLO/LM] 354658, Becton Dickinson and Company, Franklin Lakes, NJ) with conditioned-Dulbecco's modified Eagles medium (C-MEM), which was comprised of a 1∶1 mixture of conditioned medium from mouse embryonic astrocytes in primary culture and Dulbecco's modified Eagles medium with high glucose (Invitrogen) supplemented with 10% fetal calf serum, penicillin (100 U/ml), and streptomycin (100 µg/ml). When cells reached 90 % confluence, C-MEM was replaced with Opti-MEM (Invitrogen) and transfected with Lipofectamine 2000 (Invitrogen) for 24 h.
The next day, confluent GT1-7 cells were treated as described previously. The concentration of GnRH in the media was assayed using an LH-releasing hormone enzyme immunoassay kit (S-1217, Peninsula Laboratories, LLC, San Carlos, CA) according to the manufacturer's instructions.

T2 sequence (G0T3G6 19-906 S306N): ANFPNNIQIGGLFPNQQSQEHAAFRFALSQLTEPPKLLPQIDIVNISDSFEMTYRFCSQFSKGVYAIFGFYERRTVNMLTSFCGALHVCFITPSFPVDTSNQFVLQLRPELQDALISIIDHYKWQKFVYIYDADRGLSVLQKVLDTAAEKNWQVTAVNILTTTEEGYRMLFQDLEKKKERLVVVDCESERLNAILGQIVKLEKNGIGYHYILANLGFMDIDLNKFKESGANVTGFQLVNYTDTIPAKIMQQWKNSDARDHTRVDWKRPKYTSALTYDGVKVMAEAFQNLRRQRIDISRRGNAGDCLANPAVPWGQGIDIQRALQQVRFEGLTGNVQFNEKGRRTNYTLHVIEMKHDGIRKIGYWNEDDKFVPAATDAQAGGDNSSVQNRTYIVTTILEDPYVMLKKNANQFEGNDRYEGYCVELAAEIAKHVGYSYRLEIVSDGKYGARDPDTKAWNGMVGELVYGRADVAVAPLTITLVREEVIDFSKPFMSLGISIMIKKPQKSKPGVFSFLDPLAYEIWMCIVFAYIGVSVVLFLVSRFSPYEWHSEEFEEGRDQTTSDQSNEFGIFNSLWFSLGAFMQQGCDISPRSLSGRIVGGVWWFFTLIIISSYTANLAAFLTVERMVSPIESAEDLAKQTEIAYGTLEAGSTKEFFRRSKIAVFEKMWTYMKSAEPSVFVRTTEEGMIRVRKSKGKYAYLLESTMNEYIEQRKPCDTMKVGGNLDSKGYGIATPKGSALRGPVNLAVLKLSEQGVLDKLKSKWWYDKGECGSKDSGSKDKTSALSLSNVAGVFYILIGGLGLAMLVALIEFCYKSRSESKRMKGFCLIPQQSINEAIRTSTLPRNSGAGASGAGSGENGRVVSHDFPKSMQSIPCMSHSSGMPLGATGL
T1 sequence (G0T3G6 19-906): as the sequence (G0T3G6 19-906 S306N) above, with N288S counted along it

Structure (SMILES): Cc1o[nH]c(=O)c1CC(N)C(=O)O (stereo not drawn) [AMPA]
- Kd [1]: 0.0277 µM
- Kd [2]: 0.0436 µM
- Kd [3]: 0.0596 µM
- LH release [4]: induces LH release

Structure (SMILES): N[C@@H](CCC(=O)O)C(=O)O [glutamate]
- EC50 [5]: 4.5 µM
- EC50 [6]: 10.7 µM
- EC50 [7]: 4.9 µM
- EC50 [8]: 10.4 µM
- GnRH release [9]: induced the release of more GnRH than that from cells expressing GRIA1^Asn
